According to patent publication US7851503B2, “Thrombopoetin receptor activator and process for producing the same” (Nissan Chemical Industries, Ltd., priority 2002, dated 2010):

Experiments:
UT7/EPO cells [1] = experiment: Cell proliferation assay with WST-8 reagent, mother cell line UT7/EPO expressing no TPO receptor; assay type: cell-based, human; settings: 4 days incubation, absorbance at 450 nm
Description: (§1) Cells subcultured in the same manner as in Assay Example 1(1) were washed twice with PBS and suspended in IMDM containing 10% FBS at a cell density of 6×10^4 cells/ml. The cell suspension was transferred to a 96-well tissue culture plate (CORNING) in 100-μl aliquots. Then, 3-methoxyxanthocillin X dimethyl ether dissolved in DMSO was diluted 83-fold with IMDM containing 10% FBS and added to the aforementioned cell suspension in 20-μl aliquots. The suspension was incubated in a CO2 incubator (5% CO2, 37° C.) for 4 days. Cell proliferation was assayed using WST-8 reagent (Kishida Chemical Co., Ltd.) according to instructions by the manufacturer. A 10-μl aliquot of 5 mM WST-8 reagent solution was added to each well of the tissue culture plate, and the plate was incubated at 37° C. for 4 h. The formazan pigment generated was detected by measuring the absorbance at 450 nm with a 96-well microplate reader (Nihon Molecular Devices, Spectramax 190).

[2] = test system: UT7/EPO-mpl cells (expressing human TPO receptor (c-mpl)); experiment: Cell proliferation assay with WST-8 reagent, TPO-dependent cell line UT7/EPO-mpl; assay type: cell-based; settings: 4 days incubation, absorbance at 450 nm
Description: Stimulation of Proliferation of a Thrombopoietin (TPO)-Dependent Cell Line (2)
The reactivity of a compound of the present invention, 3-methoxyxanthocillin X dimethyl ether, with thrombopoietin (TPO) receptor was assayed using a human leukemic cell line, UT7/EPO-mpl.
as §1

[3] = test system: UT7/EPO-mpl cells (expressing human TPO receptor (c-mpl)); experiment: Cell proliferation assay by the MTT method, TPO-dependent cell line UT7/EPO-mpl; assay type: cell-based; settings: 4 days incubation, absorbance at 550 nm
Description: Stimulation of Proliferation of a Thrombopoietin (TPO)-Dependent Cell Line (1)
(§2) The reactivity of a compound of the present invention, xanthocillin X monomethyl ether, with thrombopoietin (TPO) receptor was assayed using a human leukemic cell line, UT7/EPO-mpl. UT7/EPO-mpl is a stable transformed cell line obtained by introducing into human leukemic cell line UT7/EPO a vector that induces expression of human TPO receptor (c-mpl) under control of a cytomegaloviral promoter by the method of Takatoku et al. (J. Biol. Chem., 272:7259-7263 (1997)). […] These two cell lines were subcultured in IMDM (GIBCO) containing 10% fetal bovine serum (FBS; TRACE SCIENTIFIC) using a CO2 incubator (5% CO2, 37° C.).
The subcultured cells described above were washed twice with PBS and suspended in IMDM containing 10% FBS at a cell density of 6×10^4 cells/ml. The cell suspension was transferred to a 96-well tissue culture plate (CORNING) in 100-μl aliquots. Then, xanthocillin X monomethyl ether dissolved in DMSO was diluted 83-fold with IMDM containing 10% FBS and added to the aforementioned cell suspension in 20-μl aliquots. […] The formazan pigment generated was dissolved by adding 150 μl per well of 0.1 M/L HCl/isopropanol solution and the absorbance of the resulting pigment solution was measured at 550 nm with a 96-well microplate reader (BIO-RAD, M450).

UT7/EPO cells [4] = experiment: Cell proliferation assay by the MTT method, mother cell line UT7/EPO expressing no TPO receptor; assay type: cell-based, human; settings: 4 days incubation, absorbance at 550 nm
Description: as §2
The subcultured cells described above were washed twice with PBS and suspended in IMDM containing 10% FBS at a cell density of 6×10^4 cells/ml. The cell suspension was transferred to a 96-well tissue culture plate (CORNING) in 100-μl aliquots. Then, xanthocillin X monomethyl ether dissolved in DMSO was diluted 83-fold with IMDM containing 10% FBS and added to the aforementioned cell suspension in 20-μl aliquots. The suspension was incubated in a CO2 incubator (5% CO2, 37° C.) for 4 days. […] The formazan pigment generated was dissolved by adding 150 μl per well of 0.1 M/L HCl/isopropanol solution and the absorbance of the resulting pigment solution was measured at 550 nm with a 96-well microplate reader (BIO-RAD, M450).

| Compound | effect on proliferation of UT7/EPO, the mother cell line (WST assay, FIG. 4) (UT7/EPO cells [1]) | proliferation of TPO-responsive UT7/EPO-mpl cells (WST assay, FIG. 3) [2] | proliferation of TPO-responsive UT7/EPO-mpl cells (MTT assay, FIG. 1) [3] | effect on proliferation of UT7/EPO, the mother cell line (MTT assay, FIG. 2) (UT7/EPO cells [4]) |
| --- | --- | --- | --- | --- |
| [C-]#[N+]C(=Cc1ccc(OC)cc1)C(=Cc1ccc(OC)c(OC)c1)[N+]#[C-] [3-methoxyxanthocillin X dimethyl ether] | no effect | stimulated |  |  |
| [C-]#[N+]C(=C\c1ccc(O)cc1)/C(=C/c1ccc(OC)cc1)[N+]#[C-] [xanthocillin X monomethyl ether] |  |  | stimulated | no effect |
